{"source": "patent US7820690B2", "about": "“Method of treating or inhibiting a non-digestive tract derived abdominal disorder associated with pain using a 5-HT, receptor antagonist” (Solvay Pharmaceuticals GmbH, priority 2004, dated 2010)", "system": "rats with cyclophosphamide-induced cystitis", "test": "cystometry in rats with cyclophosphamide-induced cystitis", "assay_type": "in vivo, male Wistar rats", "conditions": "for inhibition at 0.01 mg/kg / inhibition at 0.1 mg/kg: Rattus norvegicus, iv; for inhibition at 0.01 mg/kg: group 4, cilansetron 0.01 mg/kg i.v.; for inhibition at 0.1 mg/kg: group 5, cilansetron 0.1 mg/kg i.v.", "procedure": "In this test model, the effect of 5-HT3 receptor antagonists on rats with cyclophosphamide-induced cystitis was investigated.\nInflammation of the bladder responsible for bladder overactivity was induced by an intraperitoneal (i.p.) cyclophosphamide injection (150 mg/kg, i.p.) 48 hours before testing (Maggi et al., J Auton Nerv Syst 38 (1992) 201) using male Wistar rats weighing 300-350 g. The rats were anesthetized with urethane delivered subcutaneously in saline (1.2 g/kg), and their temperature was maintained at 37° C. Following a midline abdominal incision, a catheter was inserted through the bladder dome and sealed with a tie. The catheter was connected via a T-tube to a pressure transducer and a syringe pump, to allow filling of the bladder with warm (37° C.) saline at 50 μl/min simultaneously with recording of intravesical pressure. This catheter was later used for cystometry.\nFor each voiding and non-voiding contraction, the threshold pressure (ThP, corresponding to the bladder pressure at the onset of the voiding contraction (mm Hg)), the maximal voiding pressure (MP, defined by the maximal bladder pressure reached during voiding contraction (mm Hg)) the basal pressure (BaP, defined by the lowest bladder pressure reached after the voiding contraction (mm Hg)) and the area under the curve of the bladder pressure (AUP) during voiding (mm Hg×s) was calculated for each rat and averaged for each condition. In addition, the frequency of contractions was determined.\nTest groups consisting of 10 rats each were used. Drug treatments were carried out as described in the following Table 1.\nIn groups 2 through 5, cystitis was induced by administration of cyclophosphamide 150 mg/kg intraperitoneally (i.p.) 48 hours before the experiment. Group 1 served as a control group. Drugs or vehicle to be tested were injected 10 minutes before the beginning of cystometry. Besides […] doses of cilansetron (groups 4-5), HOE140 (D-Arginyl-[Hyp3, Thi5, D-Tic7, Oic8]-bradykinin), a bradykinin 2 receptor antagonist, was used as a reference standard known to be active in this model. During the cystometry the pressure changes due to transvesical perfusion of warm saline at 50 μl/min were recorded over 60 minutes. Parameters (as outlined above) were analyzed for each bladder filling.", "key": {"[1]": {"conditions": "read-out: % inhibition of cystitis effects, basal pressure"}, "[2]": {"conditions": "read-out: % inhibition of cystitis effects, frequency"}, "[3]": {"conditions": "read-out: % inhibition of cystitis effects, threshold pressure"}, "[4]": {"conditions": "group 4, cyclophosphamide cystitis + cilansetron 0.01 mg/kg i.v."}, "[5]": {"conditions": "group 5, cyclophosphamide cystitis + cilansetron 0.1 mg/kg i.v."}, "[6]": {"conditions": "HOE140 130 μg/kg i.v., effect of treatment in cystitis rats"}, "[7]": {"conditions": "group 3, cyclophosphamide cystitis + HOE140 130 μg/kg i.v."}}, "note": "Read-outs that look alike come from different tables or passages of the source.", "data": [{"compound": "Cc1nccn1C[C@H]1CCc2c(c3cccc4c3n2CCC4)C1=O", "note": "[cilansetron, (R)-(−)-4,5,6,8,9,10-hexahydro-10-[(2-methyl-1H-imidazol-1-yl)methyl]-11H-pyrido-[3,2,1-jk]-carbazol-11-one]", "values": [{"measurement": "inhibition at 0.01 mg/kg", "setting": "[1]", "value": 50, "unit": "%"}, {"measurement": "inhibition at 0.01 mg/kg", "setting": "[2]", "value": 45, "unit": "%"}, {"measurement": "inhibition at 0.01 mg/kg", "setting": "[3]", "value": 60, "unit": "%"}, {"measurement": "inhibition at 0.1 mg/kg", "setting": "[1]", "value": 83, "unit": "%"}, {"measurement": "inhibition at 0.1 mg/kg", "setting": "[2]", "value": 35, "unit": "%"}, {"measurement": "inhibition at 0.1 mg/kg", "setting": "[3]", "value": 100, "unit": "%"}, {"measurement": "effectiveness compared with reference compound HOE 140", "setting": "cilansetron 0.01 mg/kg i.v.", "value": "similarly effective to, or even more effective than"}, {"measurement": "symptoms of bladder overactivity associated with cyclophosphamide pretreatment", "setting": "cilansetron 0.01 and 0.1 mg/kg, compared with HOE140", "value": "reduced these symptoms to an equivalent or slightly greater extent"}, {"measurement": "beneficial effect compared with HOE140", "setting": "cystometry in rats with cyclophosphamide-induced cystitis, overall conclusion", "value": "superior"}, {"measurement": "basal pressure", "setting": "[4]", "value": 16, "unit": "mmHg"}, {"measurement": "frequency of bladder contractions", "setting": "[4]", "value": 26, "unit": "h⁻¹"}, {"measurement": "threshold pressure", "setting": "[4]", "value": 17, "unit": "mmHg"}, {"measurement": "basal pressure", "setting": "[5]", "value": 14, "unit": "mmHg"}, {"measurement": "frequency of bladder contractions", "setting": "[5]", "value": 28, "unit": "h⁻¹"}, {"measurement": "threshold pressure", "setting": "[5]", "value": 15, "unit": "mmHg"}]}, {"compound": "D-Arginyl-[Hyp3, Thi5, D-Tic7, Oic8]-bradykinin [HOE140]", "values": [{"measurement": "area under the curve of the bladder contractions", "setting": "[6]", "value": "not affected"}, {"measurement": "first micturition volume", "setting": "[6]", "value": "not affected"}, {"measurement": "micturition pressure", "setting": "[6]", "value": "not affected"}, {"measurement": "symptoms of bladder overactivity associated with cyclophosphamide pretreatment", "setting": "acute treatment, HOE140 130 μg/kg", "value": "reduced the symptoms of bladder overactivity"}, {"measurement": "% inhibition of cystitis effects, basal pressure", "setting": "group 3, HOE140 130 μg/kg i.v.", "value": 50, "unit": "%"}, {"measurement": "% inhibition of cystitis effects, frequency", "setting": "group 3, HOE140 130 μg/kg i.v.", "value": 25, "unit": "%"}, {"measurement": "% inhibition of cystitis effects, threshold pressure", "setting": "group 3, HOE140 130 μg/kg i.v.", "value": 60, "unit": "%"}, {"measurement": "frequency of bladder contractions", "setting": "[7]", "value": 30, "unit": "h⁻¹"}, {"measurement": "threshold pressure", "setting": "[7]", "value": 17, "unit": "mmHg"}, {"measurement": "basal pressure", "setting": "group 3, cyclophosphamide cystitis + HOE140 130 μg/kg i.v., 10 minutes before cystometry", "value": 16, "unit": "mmHg"}]}]}
